Measurements published in patent US8410109B2, “Pharmaceutical compositions for the prevention and treatment of complex diseases and their delivery by insertable medical devices” (Resverlogix Corp., priority 2005, dated 2013).
Structures can show the parent of a compound that is named as a salt.

Tests used:
[1] = system: Human coronary artery smooth muscle cells (CASMCs); experiment: Smooth muscle cell proliferation protocol; type: cell-based; settings: 50 uM, 72 hours, read-out: % Inhibition of SMC Proliferation
Procedure: Compounds were dissolved in DMSO, aliquoted, and stored at −20° C. Human coronary artery smooth muscle cells (CASMCs) were plated in 96-well plates and were grown in SmBM-2 media. After 1-2 hours, media was aspirated and replaced with serum-free ME/F12 media, except the controls. Cells were incubated for a further 48 hours. Compounds were diluted in DME/F12 containing 10% FBS. Media was aspirated from the plates and compounds in DME/F12 containing 10% FBS. Six wells were used per condition and duplicate plates were used. Cells were incubated for a further 72 hours. Media was aspirated from one set of plates; those cells were refed (˜100 μL/well) with 20% CellTiter 96 Aqueous One Cell Proliferation Solution (Promega), 80% EGM-2 medium. Media optical density (at 490 nm) was determined after 3-4 hours. In the second set of plates, serum-free DME/F12 media (20 μL) was added to each well. Part of the supernatant (50 μL) was removed and placed in an ELISA plate and was stored temporarily at 4° C. The remaining media and cells in the second set of plates were freeze-thawed for four cycles. The lysates and supernatants were mixed and centrifuged. Part of the supernatant (50 μL) was removed and placed in an ELISA plate. The Promega Cytotox assay was performed on the ELISA plates. The ratio of supernatant OD to supernatant+cell lysate OD was determined.
In Table 2, a positive result (+) was defined as at least 40% inhibition of the proliferation of SMC, as determined by the assay.

VCAM-1 = VCAM-1 ELISA on lysates of TNF-α stimulated HUVECs; type: cell-based; settings: Homo sapiens, HUVEC, 50 uM, approx. 16 hours
Procedure: (§1) Compounds were dissolved in DMSO, aliquoted, and stored at −20° C. Cultured human vascular endothelial cells (HUVECs) were seeded in 96-well plates in complete EGM-2 media (˜100 μL/well); cells were plated at ˜2-3×10^5/mL, and were from passage 8 to 12. Cells were incubated overnight. On the following day cells are stimulated with TNF-α (˜1 ng/mL) in the presence or absence of compounds dissolved in DMSO. Triplicate wells were used for each test. To establish a dose curve and an IC50, multiple concentrations in 2- to 5-fold increments were used. Cells were exposed to TNF-α and compounds for approximately 16 hours. The next day, cells were visually examined via light microscopy to score for visual signs of toxicity. Cell culture media was analyzed using an MCP-1 ELISA. Cells were refed (−100 μL/well) with 20% CellTiter 96. Aqueous One Cell Proliferation Solution (Promega), 80% EGM-2 medium. Media optical density (at 490 nm) was determined after 1 hour. Plates were aspirated and cell lysates were prepared and these lysates were tested using a VCAM-1 ELISA.
(§2) In Table 2, a positive result (+) was defined as at least 50% inhibition of the protein levels MCP-1 or VCAM-1, as determined by the ELISA.

MCP-1 = MCP-1 ELISA on culture media of TNF-α stimulated HUVECs; type: cell-based; settings: Homo sapiens, HUVEC, 50 uM, approx. 16 hours
Procedure: as §1, §2

SMILES | melting point | inhibition at 50 µM [1] | inhibition at 50 µM (VCAM-1) | inhibition at 50 µM (MCP-1)
COc1cc(OC)c2c(=O)[nH]c(-c3ccc(O)cc3)cc2c1 [EXAMPLE 19, 3-(4-Hydroxyphenyl)-6,8-dimethoxyisoquinolin-1(2H)-one] | 245 to 247 °C | ≥ 40% | < 50% | ≥ 50%
Cn1c(-c2ccc(O)c(F)c2)cc2ncccc2c1=O [EXAMPLE 16, 7-(3-Fluoro-4-hydroxyphenyl)-6-methyl-1,6-naphthyridin-5(6H)-one] | 182 to 184 °C | < 40% | < 50% | < 50%
Cc1cc(-c2cc3ncccc3c(=O)[nH]2)cc(C)c1O (as salt: hydrochloride) [EXAMPLE 40, 7-(4-hydroxy-3,5-dimethylphenyl)-1,6-naphthyridin-5(6H)-one hydrochloride] | > 350 °C | – | – | –
O=c1[nH]c(-c2ccc(F)cc2)nc2ccc(CN3CCOCC3)cc12 [EXAMPLE 46, 2-(4-fluorophenyl)-6-(morpholinomethyl)quinazolin-4(3H)-one] | 321.8 to 323.3 °C | ≥ 40% | < 50% | < 50%
CN(C)CCOc1ccc(-c2cc(=O)c3cccnc3o2)cc1 (as salt: hydrochloride) [EXAMPLE 27, 2-(4-(2-(dimethylamino)ethoxy)phenyl)-4H-pyrano[2,3-b]pyridin-4-one dihydrochloride] | 236 to 238 °C | – | – | –
CNc1nc(-c2ccc(O)c(F)c2)cc2c(OC)cccc12 [EXAMPLE 17, 2-Fluoro-4-(5-methoxy-1-(methylamino)isoquinolin-3-yl)phenol] | 185 to 187 °C | < 40% | ≥ 50% | ≥ 50%
COc1cc(OC)c2c(=O)[nH]c(-c3cc(C)c(OCC(C)(C)O)c(C)c3)cc2c1 [EXAMPLE 42, 3-(4-(2-hydroxy-2-methylpropoxy)-3,5-dimethylphenyl)-6,8-dimethoxyisoquinolin-1(2H)-one] | 252 to 254 °C | ≥ 40% | ≥ 50% | < 50%
Oc1ccc(-c2cc3ccccc3cn2)cc1 [EXAMPLE 15, 4-Isoquinolin-3-yl-phenol] | 218 to 219 °C | < 40% | ≥ 50% | < 50%
Cc1cc(-c2cc(=O)c3cc(CN4CCCC4)cnc3o2)cc(C)c1O (as salt: hydrochloride) [EXAMPLE 33, 2-(4-hydroxy-3,5-dimethylphenyl)-6-(pyrrolidin-1-ylmethyl)-4H-pyrano[2,3-b]pyridin-4-one dihydrochloride] | 337 to 338 °C | – | – | –
COc1cc(OC)c2c(=O)cc(-c3ccncc3)oc2c1 (as salt: hydrochloride) [EXAMPLE 34, 5,7-dimethoxy-2-(pyridin-4-yl)-4H-chromen-4-one hydrochloride] | 234 to 235 °C | – | – | –
COc1cc(O)nc2cc(-c3cc(C)c(O)c(C)c3)[nH]c(=O)c12 (as salt: hydrochloride) [EXAMPLE 41, 2-hydroxy-7-(4-hydroxy-3,5-dimethylphenyl)-4-methoxy-1,6-naphthyridin-5(6H)-one dihydrochloride] | > 330 °C | – | – | –
CN(C)Cc1ccc2c(=O)cc(-c3ccc(O)cc3)oc2n1 (as salt: hydrochloride) [EXAMPLE 26, 7-((dimethylamino)methyl-2-(4-hydroxyphenyl)-4H-pyrano[2,3-b]pyridin-4-one dihydrochloride] | 205 °C | – | – | –
CNc1nc(-c2cc(C)c(O)c(C)c2)cc2ccc(CN3CCN(C)CC3)cc12 (as salt: hydrochloride) [EXAMPLE 43, 2,6-dimethyl-4-(1-(methylamino)-7-((4-methylpiperazin-1-yl)methyl)isoquinolin-3-yl)phenol trihydrochloride] | 264 to 266 °C | – | – | –
Cc1cc(-c2cc(=O)c3cccnc3o2)cc(C)c1OCCN1CCOCC1 (as salt: hydrochloride) [EXAMPLE 31, 2-(3,5-dimethyl-4-(2-morpholinoethoxy)phenyl)-4H-pyrano[2,3-b]pyridin-4-one hydrochloride] | 276 to 278 °C | – | – | –

Now from value to compound, other results behind:

melting point | SMILES | inhibition at 50 µM [1] | inhibition at 50 µM (VCAM-1) | inhibition at 50 µM (MCP-1)
296 to 297 °C | O=c1cc(-c2ccc(O)nc2)oc2ccccc12 [EXAMPLE 13, 2-(6-Hydroxypyridin-3-yl)-chromen-4-one] | ≥ 40% | ≥ 50% | < 50%
306 to 308 °C | O=c1cc(-c2ccc(O)cc2)oc2ccncc12 [EXAMPLE 6, 2-(4-Hydroxyphenyl)-4H-pyrano[3,2-c]pyridin-4-one] | ≥ 40% | ≥ 50% | < 50%
294 to 296 °C | O=c1cc(-c2ccc(O)cc2)oc2cnccc12 [EXAMPLE 3, 2-(4-Hydroxyphenyl)-pyrano[2,3-c]pyridin-one] | ≥ 40% | < 50% | < 50%
122.8 to 124 °C | O=c1cc(-c2cccnc2)oc2ccccc12 [EXAMPLE 25, 2-(pyridin-3-yl)-4H-chromen-4-one] | ≥ 40% | < 50% | < 50%
218 to 219 °C | O=c1cc(-c2ccc(CO)cc2)oc2ncccc12 [EXAMPLE 23, 2-(4-(hydroxymethyl)phenyl)-4H-pyrano[2,3-b]pyridin-4-one] | ≥ 40% | < 50% | < 50%
103 to 105 °C | O=c1cc(-c2ccccc2)oc2ncccc12 [EXAMPLE 22, 2-Phenyl-4H-pyrano[2,3-b]pyridin-4-one] | ≥ 40% | < 50% | < 50%
272.3 to 274.8 °C | O=c1cc(-c2ccc3nccnc3c2)oc2ncccc12 [EXAMPLE 44, 2-(quinoxalin-6-yl)-4H-pyrano[2,3-b]pyridin-4-one] | ≥ 40% | ≥ 50% | < 50%
248 to 250 °C | O=c1cc(-c2ccncc2)oc2ncccc12 (as salt: hydrochloride) [EXAMPLE 30, 2-(pyridin-4-yl)-4H-pyrano[2,3-b]pyridin-4-one hydrochloride] | – | – | –
157 to 159 °C | O=c1cc(-c2ccc(OCCO)cc2)oc2ncccc12 [EXAMPLE 10, 2-(4-(2-Hydroxyethoxy)phenyl)-4H-pyrano[2,3-b]pyridine-4-one] | ≥ 40% | < 50% | < 50%
259 to 262 °C | O=c1cc(-c2ccc(O)c(Cl)c2)oc2ncccc12 [EXAMPLE 7, 2-(3-Chloro-4-hydroxyphenyl)-4H-pyrano[2,3-b]pyridine-4-one] | ≥ 40% | ≥ 50% | ≥ 50%
294 to 296 °C | O=c1cc(-c2ccccc2)oc2ncc(CN3CCCC3)cc12 (as salt: hydrochloride) [EXAMPLE 35, 2-phenyl-6-(pyrrolidin-1-ylmethyl)-4H-pyrano[2,3-b]pyridin-4-one hydrochloride] | – | – | –
254 to 255 °C | Nc1ccc(-c2cc(=O)c3cccnc3o2)cc1 (as salt: hydrochloride) [EXAMPLE 38, 2-(4-aminophenyl)-4H-pyrano[2,3-b]pyridin-4-one hydrochloride] | – | – | –
